This passage reports T/C results from PubChem BioAssay AID180 (DTP/NCI, 2004).

This experiment relates to BDF1 mice, Adenocarcinoma 755 s.c., tumor weight T/C. The experiment is described as follows: NCI In Vivo Anticancer Drug Screen. Data for tumor model Adenocarcinoma 755 (subcutaneous) in B6D2F1 (BDF1) mice. As to conditions: endpoint: mean tumor weight, schedule: Q01DX011 (ip), higher = larger tumour. As to the method:
The antitumor activity of compounds was measured in mice bearing transplantable tumors. Survival or tumor size were measured and the results are expressed as the measurement made in the treated group (T) divided by the measurement made in the vehicle treated control group (C). The tumor model used in this assay is Adenocarcinoma 755 (subcutaneous) in B6D2F1 (BDF1) mice

The mark [1] stands for this setting: dose: 6.25 mg/kg/injection, vehicle: methylcellulose (MC).
Where [2] appears, read: dose: 12.0 mg/kg/injection, vehicle: carboxymethylcellulose (CMC).
Setting [3] is: dose: 25.0 mg/kg/injection, vehicle: carboxymethylcellulose (CMC).
The mark [4] stands for this setting: dose: 50.0 mg/kg/injection, vehicle: carboxymethylcellulose (CMC).
The mark [5] stands for this setting: dose: 125.0 mg/kg/injection, vehicle: carboxymethylcellulose (CMC).
[6] abbreviates: dose: 250.0 mg/kg/injection, vehicle: carboxymethylcellulose (CMC).
Where [7] appears, read: dose: 500.0 mg/kg/injection, vehicle: carboxymethylcellulose (CMC).

Several values for one entry are separate records, joined by “and”; a condition that tells them apart may be missing. Equal entries are not always repeated.

The T/C is the result in the treated group divided by that in the control group, in per cent. For `CSc1nc(Cl)c(Br)c(Sc2nc(N)nc3nc[nH]c23)n1`, the T/C under setting [1] was 39 % of control; the T/C under setting [2] was 59 % of control; the T/C (dose: 12.0 mg/kg/injection, vehicle: methylcellulose (MC)) was 29 % of control; the T/C (dose: 12.5 mg/kg/injection, vehicle: methylcellulose (MC)) is 27 % of control; the T/C under setting [3] was 28 % of control; the T/C (dose: 25.0 mg/kg/injection, vehicle: methylcellulose (MC)) is 33 % of control and 48 % of control. Further, the T/C is 5 % of control under setting [4]; 42 % of control (dose: 50.0 mg/kg/injection, vehicle: methylcellulose (MC)); 7 % of control (dose: 100.0 mg/kg/injection, vehicle: methylcellulose (MC)).
For `CCC1OCCN1C(C)C` (centres undefined), the T/C (dose: 12.0 mg/kg/injection, vehicle: other) is 118 % of control; the T/C under setting [3] is 57 % of control; the T/C (dose: 25.0 mg/kg/injection, vehicle: other) was 109 % of control; the T/C (dose: 25.0 mg/kg/injection, vehicle: saline) was 84 % of control; the T/C under setting [4] is 33 % of control; the T/C (dose: 50.0 mg/kg/injection, vehicle: other) is 223 % of control. Besides, the T/C (dose: 50.0 mg/kg/injection, vehicle: saline) is 29 % of control.
As to `O=C(CCBr)N1CCCN(C(=O)CCBr)CC1`, the T/C is 85 % of control (dose: 28.0 mg/kg/injection, vehicle: carboxymethylcellulose (CMC)); 60 % of control (dose: 57.0 mg/kg/injection, vehicle: carboxymethylcellulose (CMC)); 58 % of control and 78 % of control (dose: 57.0 mg/kg/injection, vehicle: methylcellulose (MC)); 16 % of control (dose: 113.0 mg/kg/injection, vehicle: carboxymethylcellulose (CMC)); 35 % of control (dose: 113.0 mg/kg/injection, vehicle: methylcellulose (MC)).
For `CCn1cnc2c(SC(C)C)ncnc21`, the T/C was 42 % of control (dose: 16.0 mg/kg/injection, vehicle: carboxymethylcellulose (CMC)) and 4 % of control (dose: 31.0 mg/kg/injection, vehicle: carboxymethylcellulose (CMC)).
On to `NC(Cc1ccc(N(CCCl)CCCl)cc1)C(=O)O` (centres undefined), for which the T/C runs as follows: (dose: 0.32 mg/kg/injection, vehicle: carboxymethylcellulose (CMC)) 58 % of control; (dose: 0.62 mg/kg/injection, vehicle: carboxymethylcellulose (CMC)) 87 % of control and 66 % of control; (dose: 0.64 mg/kg/injection, vehicle: carboxymethylcellulose (CMC)) 32 % of control; (dose: 0.83 mg/kg/injection, vehicle: carboxymethylcellulose (CMC)) 46 % of control; (dose: 1.0 mg/kg/injection, vehicle: methylcellulose (MC)) 82 % of control; (dose: 1.28 mg/kg/injection, vehicle: carboxymethylcellulose (CMC)) 23 % of control. Besides, the T/C (dose: 1.38 mg/kg/injection, vehicle: carboxymethylcellulose (CMC)) is 20 % of control; the T/C (dose: 1.5 mg/kg/injection, vehicle: methylcellulose (MC)) is 26 % of control; the T/C (dose: 1.67 mg/kg/injection, vehicle: carboxymethylcellulose (CMC)) was 39 % of control; the T/C (dose: 1.73 mg/kg/injection, vehicle: carboxymethylcellulose (CMC)) was 19 % of control; the T/C (dose: 2.0 mg/kg/injection, vehicle: methylcellulose (MC)) was 30 % of control; the T/C (dose: 2.3 mg/kg/injection, vehicle: carboxymethylcellulose (CMC)) was 23 % of control. In addition, the T/C is, setting by setting: (dose: 2.56 mg/kg/injection, vehicle: carboxymethylcellulose (CMC)) 9 % of control; (dose: 3.0 mg/kg/injection, vehicle: methylcellulose (MC)) 14 % of control; (dose: 3.35 mg/kg/injection, vehicle: carboxymethylcellulose (CMC)) 9 % of control; (dose: 3.45 mg/kg/injection, vehicle: carboxymethylcellulose (CMC)) 12 % of control; (dose: 4.0 mg/kg/injection, vehicle: methylcellulose (MC)) 12 % of control; (dose: 5.0 mg/kg/injection, vehicle: carboxymethylcellulose (CMC)) 11 % of control and 30 % of control. The T/C is 5 % of control (dose: 6.0 mg/kg/injection, vehicle: methylcellulose (MC)); 5 % of control under setting [1]; 4 % of control (dose: 6.7 mg/kg/injection, vehicle: carboxymethylcellulose (CMC)); 8 % of control (dose: 6.9 mg/kg/injection, vehicle: carboxymethylcellulose (CMC)); 6 % of control (dose: 8.0 mg/kg/injection, vehicle: methylcellulose (MC)); 4 % of control (dose: 10.0 mg/kg/injection, vehicle: carboxymethylcellulose (CMC)).
For the compound `Nc1nc(NCc2ccccc2)cc(=O)[nH]1`, the T/C is 66 % of control (dose: 55.0 mg/kg/injection, vehicle: methylcellulose (MC)) and 49 % of control (dose: 165.0 mg/kg/injection, vehicle: methylcellulose (MC)).
As for `CC1NC(=O)NC1CCCCCC(=O)O` (centres undefined), the T/C by setting is: (dose: 89.06 mg/kg/injection, vehicle: carboxymethylcellulose (CMC)) 122 % of control; under setting [5], 75 % of control; (dose: 178.13 mg/kg/injection, vehicle: carboxymethylcellulose (CMC)) 83 % of control; under setting [6], 49 % of control; (dose: 356.25 mg/kg/injection, vehicle: carboxymethylcellulose (CMC)) 90 % of control; under setting [7], 68 % of control. The T/C was 47 % of control (dose: 712.5 mg/kg/injection, vehicle: carboxymethylcellulose (CMC)) and 69 % of control (dose: 1000.0 mg/kg/injection, vehicle: carboxymethylcellulose (CMC)).
Consider `Nc1ncnc2nc(/N=N/SCCC(=O)O)[nH]c12`, for which the T/C is 205 % of control (dose: 37.5 mg/kg/injection, vehicle: saline); 123 % of control (dose: 75.0 mg/kg/injection, vehicle: saline); 56 % of control (dose: 150.0 mg/kg/injection, vehicle: saline).
For `CN(C)S(=O)(=O)c1nc(Cl)c2[nH]cnc2n1`, the T/C runs as follows: under setting [3], 98 % of control; (dose: 75.0 mg/kg/injection, vehicle: carboxymethylcellulose (CMC)) 89 % of control; (dose: 225.0 mg/kg/injection, vehicle: carboxymethylcellulose (CMC)) 58 % of control.
Turning to `COc1cc2c(c(OC)c1OC)-c1ccc(N)c(=O)cc1[C@@H](NC(C)=O)CC2`, the T/C reads like this: (dose: 0.5 mg/kg/injection, vehicle: saline) 98 % of control; (dose: 2.0 mg/kg/injection, vehicle: saline) 32 % of control and 47 % of control; (dose: 4.0 mg/kg/injection, vehicle: saline) 15 % of control and 37 % of control.
`[Br][Hg][CH2]C1COC([CH2][Hg][Br])CO1` (centres undefined): the T/C is 101 % of control (dose: 6.0 mg/kg/injection, vehicle: carboxymethylcellulose (CMC)); 60 % of control under setting [2]; 27 % of control under setting [4].
As for `CS(=O)(=O)OCC(O)C(O)COS(C)(=O)=O` (centres undefined), the T/C runs as follows: under setting [5], 65 % of control; (dose: 200.0 mg/kg/injection, vehicle: saline) 66 % of control; under setting [6], 20 % of control; under setting [7], 6 % of control; (dose: 800.0 mg/kg/injection, vehicle: saline) 17 % of control.
